In patent US10188677B2, “Iron supplement composition” (THE D DROPS COMPANY INC., priority 2011, dated 2019):
Marks after values point to notes of the source that are not given here.

Legend:
Type in all cases: physicochemical
[1] = Viscosity and density of carrier liquids
Method: (§1) Iron salt in the form of ferrous sulfate (dried) and ferrous fumarate were investigated for dispersibility and settling behavior in a range of carrier liquids. Sufficient iron salt was added to test tubes to achieve concentrations of elemental iron equivalent to 66 mg/mL suspension (i.e., 2 mg/drop, a commercially-viable concentration for infant supplementation).

[2] = Drop consistency for Eurodropper dispensing
Method: Drop consistency was examined to determine suitability of various dispersions for Eurodropper dispensing. Preparations of various iron salts, at concentrations of 66 mg/mL, were made using medium chain triglyceride oil. Each sample was shaken vigorously and then inverted to dispense 10 drops. This was repeated until 60 drops were dispensed.
The effect of carrier liquid type on drop consistency was next examined. Preparations of ferrous fumarate (149 μm particle size) were prepared and drop consistency was measured using similar methodology to that described above.

[3] = Settling: time for iron salt particulate to show evidence of settling in carrier liquid
Method: Settling behavior was also tested for each carrier liquid. Test tubes of carrier liquid were loaded with either ferrous sulfate (dried) or ferrous fumarate at concentrations of 66 mg/mL of elemental iron. […] Settling was then allowed to proceed and the time required for the iron salt particulate to show evidence of settling was recorded. Evidence of settling was considered as a reduction in opacity throughout the top 1 cm of liquid in the test tube.

[4] = Dispersion: number of test tube inversions to achieve even dispersion of iron salt in carrier liquid; conditions: for Dispersion (# of inversions): 66 mg/mL elemental iron
Method: as §1
The initial preparation of dry powder iron salts into suspension was achieved by weighing the desired amount of dry powder, which was added to the liquid in a capped test tube. The combination was shaken for about two minutes, and it was then allowed to settle overnight to promote thorough particle whetting.
Suitability of the preparation for suspension was next tested by counting the number inversions of the test tube inversions required to achieve an even dispersion of particles in the carrier liquid. Each replicate began with iron salt fully settled at the bottom of the test tube.

[5] = iron salt 66 mg/mL in medium chain triglyceride oil
[6] = carrier: medium chain triglyceride, 66 mg/mL elemental iron
[7] = carrier: olive oil, 66 mg/mL elemental iron
[8] = carrier: rapeseed oil, 66 mg/mL elemental iron
[9] = carrier: medium chain triglyceride

Row | SMILES | Dispensing of dispersion from the Eurodropper [2, 5] | Settling [3, 6] [s] | Settling [3, 7] [s] | Settling [3, 8] [s] | Dispersion (# of inversions) [4, 9] | Dispersion (# of inversions) ([4]; carrier: olive oil) | Dispersion (# of inversions) ([4]; carrier: rapeseed oil) | Dispersibility ([4]; water-based preparations) | also measured
1 | O [Water] | – | – | – | – | – | – | – | – | Density [1]: 1 g/mL; Viscosity ([1]; @ 20° C.): 1 cP
2 | O=S(=O)([O-])[O-].[Fe+2] [Ferrous sulfate (dried), ferrous sulfate (dried)] | ** Dispersion failed to dispense at all from the Eurodropper because the powder clumped in the oil, and occluded opening. | 42.3 ± 8.5 | 213.3 ± 7.6 | 238.7 ± 5.9 | 7.3 ± 0.6 # of inversions | 27.3 ± 4.5 # of inversions | 62.0 ± 6.0 # of inversions | not at all | –
3 | O=C([O-])/C=C/C(=O)[O-].[Fe+2] [Ferrous fumarate, ferrous fumarate] | – | 16.3 ± 1.2 | 95.5 ± 4.9 | 144.0 ± 5.7 | 56.4 ± 10.6 # of inversions | 84.0 ± 1.4 # of inversions | 167.0 ± 7.0 # of inversions | very easily | Average 10 Drop Weight (mg ± SD) ([2]; ferrous fumarate 149 μm particle size, carrier: canola oil): 284.8 ± 4.7 mg; Average 10 Drop Weight (mg ± SD) ([2]; ferrous fumarate 149 μm particle size, carrier: medium chain triglyceride): 276.2 ± 3.0 mg; Average 10 Drop Weight (mg ± SD) ([2]; ferrous fumarate 149 μm particle size, carrier: olive oil): 285.8 ± 3.5 mg; Average 10 Drop Weight (mg ± SD) ([2]; ferrous fumarate 149 μm particle size, carrier: water): Occluded *; Average 10 Drop Weight (mg ± SD) ([2]; iron salt 66 mg/mL in medium chain triglyceride oil, Eurodropper, 60 drops, listed as Ferrous fumarate (Sigma, XXX μm)): 264.7 ± 10.2 mg; Average 10 Drop Weight (mg ± SD) ([2]; iron salt 66 mg/mL in medium chain triglyceride oil, Eurodropper, 60 drops, listed as Ferrous fumarate (Watson, 149 μm)): 277.0 ± 10.3 mg; Performance in the Eurodropper ([2]; regardless of carrier liquid): consistent performance; Settling ([3]; carrier: water, 66 mg/mL elemental iron): 1.0 ± 0.5 s; Settling ([3]; in water): extremely rapid settling; Dispersibility ([4]; carrier: medium chain triglyceride oil, relative to the other carriers): acceptably rapid; Dispersion (# of inversions) ([4]; carrier: water): 4.3 ± 0.6 # of inversions
4 | O=P([O-])([O-])OP(=O)([O-])[O-].[Fe+2].[Fe+2] [Ferrous pyrophosphate] | * Dispersion failed to dispense from the Eurodropper after 15 drops. | – | – | – | – | – | – | – | Average 10 Drop Weight (mg ± SD) ([2]; iron salt 66 mg/mL in medium chain triglyceride oil, Eurodropper, 60 drops): 266 * mg
